In a melting point compilation (Tetko et al.):

Compound	melting point [°C]
N#Cc1cc2c(nc1N)CCC2	205 to 207
O=C(c1cc2cc(Br)ccc2o1)c1cccs1	88 to 90
NS(=O)(=O)c1cccc(F)c1	129 to 131
O=C(O)CCc1nc2cc(Br)ccc2s1	154 to 156
O=C(O)c1ccc(S(=O)(=O)N2CCCc3ccccc32)cc1	170 to 172
C=CC(=O)Nc1ccc(C(=O)O)cc1	246 to 248
OCCc1ccc2ccccc2c1	66 to 68
COC(=O)COc1ccc([N+](=O)[O-])c2ccccc12	141 to 143
NC(=O)NCc1ccccn1	139 to 141
COC(=O)c1cc(Cl)c(NC(=O)OCC(F)(F)F)cc1OC	100 to 102
Cc1cc(Cl)cc2cc(C#N)oc12	113 to 115
CC1(C)CCc2[nH]c3ccccc3c2C1	103 to 105
O=C(O)c1ccc(-c2noc(C(F)(F)F)n2)cc1	249 to 251
COc1cc2ncc(Cl)nc2cc1OC	149 to 151
CC(=O)c1ccc(S(=O)(=O)NCc2ccc(F)cc2)cc1	149 to 151
Cc1n[nH]c(C)c1CC(C)C(=O)O (stereo not drawn)	170 to 172
O=C(O)c1ccc(NS(=O)(=O)c2cccs2)cc1	226 to 228
Cc1cc(S(N)(=O)=O)cc(C(=O)O)c1C	261 to 263
O=C(O)C=NNc1ccc(F)cc1	87 to 89
NC(=O)CNS(=O)(=O)c1c[nH]c(C(=O)O)c1	239 to 241

Compound	melting point [°C]
O=C(O)C1CC1c1ccc(Cl)cc1Cl (stereo not drawn)	157 to 159
Oc1ccc(C2SCCCS2)cc1	154 to 156
CC(OCc1ccccc1)C(=O)O (stereo not drawn)	51 to 53
Clc1ccc2c(c1)NCCCS2	51 to 53
C#CCNC(=O)CC(=O)O	64 to 66
CCOc1cc(C#N)cc(Br)c1O	140 to 142
NNc1nc2cc(C(F)(F)F)ccc2s1	219 to 221
Nc1cc(Cl)c(Cl)c(C(=O)O)c1	199 to 201
CC(NC(=O)OCC(F)(F)F)c1nncn1C (stereo not drawn)	103 to 105
O=C(O)c1cc(Cl)cc(Br)c1O	214 to 216
O=C(CBr)c1cc2cc(Cl)ccc2o1	168 to 170
O=C(O)CC1COCCN1 (stereo not drawn)	253 to 255
COc1ccc(-c2n[nH]c(=O)c3ccccc23)cc1	238 to 240
Nc1ccc(-c2noc(=O)[nH]2)cc1	198 to 200
CC(C)(C(=O)O)c1cccc(Cl)c1	65 to 67
CC(C)C(NC(=O)c1ccccc1F)C(=O)O (stereo not drawn)	116 to 118
O=C1CCc2cc(C(=O)CCl)ccc2N1	212 to 214
Cc1cnn(-c2ccc(S(=O)(=O)Cl)cc2F)c1	99 to 101
COc1ccccc1C(O)c1ccccn1 (stereo not drawn)	57 to 59
O=C(O)CCc1nnc(-c2ccccn2)o1	191 to 193

Compound	melting point [°C]
COc1cc(Cl)c(C)cc1N	102 to 103
c1ccc(Cn2ccnc2)nc1	63 to 65
Nc1nc2c(s1)CCc1ccccc1-2	58 to 66
N#Cc1ccc(NC2CC2)cc1	79 to 81
Cc1c(N)cccc1C(=O)N1CCCC1	162 to 164
NCCNc1ncnc2sccc12	117 to 119
CC(C)CC(=O)Nc1ccccc1C(=O)O	121 to 123
Oc1cccc(-c2nccc(Cl)n2)c1	135 to 137
CC(=O)c1sc(N)nc1-c1ccccc1	145 to 147
Cn1c(S)nnc1-c1ccc(F)cc1	111 to 115
Cc1nc(C)c(CCl)s1	62 to 64
Cc1cc(C=O)c(C)n1-c1cccc(C(F)(F)F)c1	103 to 105
O=C(O)Cn1cnc(-c2ccccc2)n1	179 to 181
Clc1cc(N2CCSCC2)ncn1	134 to 136
Cn1ccnc1SCC(=O)Nc1ccc(C(=O)O)cc1	171 to 173
NC(=NO)c1cccnc1Oc1ccccc1	152 to 154
O=C1CC(c2ccccn2)CN1 (stereo not drawn)	79 to 81
O=C(O)CCc1nc(-c2ccc(Cl)cc2)no1	152 to 154
